Data reported in patent US10633407B2, “14-membered ketolides and methods of their preparation and use” (President and Fellows of Harvard College, priority 2014, dated 2020).
Converted amounts (≈) assume the structure as drawn.

Tests used:
Test in all cases: CLSI broth dilution MIC determination
Format in all cases: cell-based
[1] = test system: A. baumannii chromosomal class C; conditions: Gram-negative
[2] = test system: E. faecalis ATCC 29212; conditions: E. faecalis ATCC 29212; Gram-positive
[3] = test system: K. pneumoniae SHV-12; conditions: Gram-negative
[4] = test system: A. baumannii IMP-4; conditions: Gram-negative
[5] = test system: A. baumannii imipenem-resistant; conditions: Gram-negative
[6] = test system: K. pneumoniae KPC-2; conditions: Gram-negative
[7] = test system: H. influenzae Erythro >4, Azithro 1; conditions: H. influenzae Erythro >4, Azithro 1; Gram-negative
From the text: MIC data was collected for the novel macrolides that this platform has produced against over 21 unique strains of B. subtilis, E. coli, S. aureus, S. pneumoniae, and H. influenzae, including several multidrug-resistant strains, with a special focus on macrolide resistant mechanisms (vide supra). […] CLSI standard procedures for broth dilution MIC determination were used. […] These genotypes can be constitutive or inducible.

[8] = test system: P. aeruginosa HPA101-1477; conditions: Gram-negative
[9] = test system: S. pyogenes ATCC 19615; conditions: S. pyogenes ATCC 19615; Gram-positive
[10] = test system: S. pyogenes Macrolide-resistant; conditions: S. pyogenes Macrolide-resistant; Gram-positive
[11] = test system: E. faecalis Vancomycin-resistant; conditions: E. faecalis Vancomycin-resistant; Gram-positive
[12] = test system: A. baumannii ATCC 19606; conditions: A. baumannii ATCC 19606; Gram-negative
[13] = test system: K. pneumoniae ATCC 10031; conditions: K. pneumoniae ATCC 10031; Gram-negative
[14] = test system: P. aeruginosa ATCC 27853; conditions: P. aeruginosa ATCC 27853; Gram-negative
[15] = test system: S. pneumoniae ATCC 49619; conditions: S. pneumoniae ATCC 49619; Gram-positive
Outline: (§1)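 Azithromycin and solithromycin were included as macrolide controls in many cases. MICs were determined by CLSI standard broth dilution.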

[16] = test system: H. influenzae ATCC49247; conditions: Gram-negative
Outline: as §1

[17] = test system: E. coli ATCC 25922; conditions: E. coli ATCC 25922; Gram-negative
Outline: as §1

[18] = test system: E. coli TEM-1; conditions: E. coli TEM-1; Gram-negative
Outline: as §1

[19] = test system: S. pneumoniae mef A genotype (second strain so labelled); conditions: Gram-positive
Outline: as §1

[20] = test system: S. pneumoniae erm B + mef A genotype; conditions: S. pneumoniae erm B + mef A genotype; Gram-positive
Outline: as §1

[21] = test system: S. aureus MRSA: USA100; conditions: S. aureus MRSA: USA100; Gram-positive
Outline: as §1

[22] = test system: S. aureus ATCC 29213; conditions: S. aureus ATCC 29213; Gram-positive
Outline: as §1

[23] = test system: K. pneumoniae TEM-10; conditions: Gram-negative
[24] = test system: E. coli NDM-1; conditions: Gram-negative
Outline: as §1

[25] = test system: S. aureus MRSA: USA300; conditions: S. aureus MRSA: USA300; Gram-positive
Outline: as §1

[26] = test system: S. aureus erm A genotype; conditions: S. aureus erm A genotype; Gram-positive
Outline: as §1

[27] = test system: E. coli CTX-M-14; conditions: Gram-negative
Outline: as §1

[28] = test system: S. aureus USA600, GISA; conditions: S. aureus USA600, GISA; Gram-positive
Outline: as §1

Row | SMILES | MIC [1] [µg/mL] | MIC [2] [µg/mL] | MIC [3] [µg/mL] | MIC [4] [µg/mL] | MIC [5] [µg/mL] | MIC [6] [µg/mL] | MIC [7] [µg/mL] | MIC [8] [µg/mL] | MIC [9] [µg/mL] | MIC [10] [µg/mL] | MIC [11] [µg/mL] | MIC [12] [µg/mL] | MIC [13] [µg/mL] | MIC [14] [µg/mL] | MIC [15] [µg/mL] | MIC [16] [µg/mL] | MIC [17] [µg/mL] | MIC [18] [µg/mL] | MIC [19] [µg/mL] | MIC [20] [µg/mL] | also measured
1 | CC[C@H]1OC(=O)[C@H](C)C(=O)[C@H](C)[C@@H](O[C@@H]2OC(C)CC(N(C)C)C2O)[C@](C)(OC)C[C@@H](C)C(=O)[C@H](C)[C@H]2N(CC3CC3Cn3cc(-c4cccc(N)c4)nn3)C(=O)O[C@]12C (single isomer, unassigned) [FSM-100428] | 16 (≈ 19.1 µM) | < 0.0312 | > 32 | > 32 | 16 (≈ 19.1 µM) | > 32 | 2 (≈ 2.38 µM) | > 32 | < 0.0312 | < 0.0312 | > 32 | 16 (≈ 19.1 µM) | 16 (≈ 19.1 µM) | > 32 | < 0.0312 | 4 (≈ 4.77 µM) | 32 (≈ 38.1 µM) | 32 (≈ 38.1 µM) | < 0.0312 | 0.0625 | MIC [21]: > 32 µg/mL; MIC [22]: < 0.0312 µg/mL; MIC [23]: 32 µg/mL (≈ 38.1 µM); MIC [24]: > 32 µg/mL; MIC [25]: 4 µg/mL (≈ 4.77 µM); MIC [26]: > 32 µg/mL; MIC [27]: > 32 µg/mL; MIC [28]: > 32 µg/mL
2 | CC[C@H]1OC(=O)[C@H](C)C(=O)[C@H](C)[C@@H](O[C@@H]2OC(C)CC(N(C)C)C2O)[C@](C)(OC)C[C@@H](C)C(=O)[C@H](C)[C@H]2N(CC3CC3Cn3cc(-c4cccc(N)c4)nn3)C(=O)O[C@]12C (single isomer, unassigned) [FSM-100434] | 16 (≈ 19.1 µM) | < 0.0312 | > 32 | > 32 | 16 (≈ 19.1 µM) | > 32 | > 32 | > 32 | < 0.0312 | < 0.0312 | > 32 | 16 (≈ 19.1 µM) | 32 (≈ 38.1 µM) | > 32 | < 0.0312 | > 32 | > 32 | > 32 | 0.125 (≈ 0.149 µM) | 1 | MIC [21]: > 32 µg/mL; MIC [22]: 0.25 µg/mL (≈ 0.298 µM); MIC [23]: > 32 µg/mL; MIC [24]: > 32 µg/mL; MIC [25]: > 32 µg/mL; MIC [26]: > 32 µg/mL; MIC [27]: > 32 µg/mL; MIC [28]: > 32 µg/mL
3 | CC[C@H]1OC(=O)[C@H](C)C(=O)[C@H](C)[C@@H](O[C@@H]2OC(C)CC(N(C)C)C2O)[C@](C)(OC)C[C@@H](C)C(=O)[C@H](C)[C@H]2N(C/C=C/Cn3cc(-c4nccs4)nn3)C(=O)O[C@]12C (stereo partly shown) [FSM-11559] | 16 (≈ 19.6 µM) | ≤ 0.0312 | > 32 | > 32 | 32 (≈ 39.2 µM) | > 32 | 4 (≈ 4.9 µM) | > 32 | ≤ 0.0312 | 0.125 (≈ 0.153 µM) | > 32 | 16 (≈ 19.6 µM) | 4 (≈ 4.9 µM) | > 32 | ≤ 0.0312 | 4 (≈ 4.9 µM) | > 32 | 32 (≈ 39.2 µM) | 0.125 (≈ 0.153 µM) | 1 | MIC [21]: > 32 µg/mL; MIC [22]: 0.125 µg/mL (≈ 0.153 µM); MIC [23]: > 32 µg/mL; MIC [24]: > 32 µg/mL; MIC [25]: 4 µg/mL (≈ 4.9 µM); MIC [26]: > 32 µg/mL; MIC [27]: > 32 µg/mL; MIC [28]: > 32 µg/mL
4 | CC[C@H]1OC(=O)[C@@](C)(F)C(=O)[C@H](C)[C@@H](O[C@@H]2OC(C)CC(N(C)C)C2O)[C@](C)(OC)C[C@@H](C)C(=O)[C@H](C)[C@H]2N(C/C=C/Cn3cc(-c4nccs4)nn3)C(=O)O[C@]12C (stereo partly shown) [FSM-11562] | 8 (≈ 9.58 µM) | ≤ 0.0312 | > 32 | > 32 | 8 (≈ 9.58 µM) | > 32 | 2 (≈ 2.4 µM) | > 32 | ≤ 0.0312 | 0.125 (≈ 0.15 µM) | > 32 | 8 (≈ 9.58 µM) | 4 (≈ 4.79 µM) | > 32 | ≤ 0.0312 | 4 (≈ 4.79 µM) | 16 (≈ 19.2 µM) | 16 (≈ 19.2 µM) | 0.0625 (≈ 0.0748 µM) | 0.25 | MIC [21]: > 32 µg/mL; MIC [22]: 0.0625 µg/mL (≈ 0.0748 µM); MIC [23]: 32 µg/mL (≈ 38.3 µM); MIC [24]: > 32 µg/mL; MIC [25]: 1 µg/mL (≈ 1.2 µM); MIC [26]: > 32 µg/mL; MIC [27]: > 32 µg/mL; MIC [28]: > 32 µg/mL
5 | CC[C@H]1OC(=O)[C@H](C)C(=O)[C@H](C)[C@@H](O[C@@H]2OC(C)CC(N(C)C)C2O)[C@](C)(OC)C[C@@H](C)C(=O)[C@H](C)[C@H]2N(CC#CCn3cc(-c4cccc(N)c4)nn3)C(=O)O[C@]12C (stereo partly shown) [FSM-100239] | 2 (≈ 2.43 µM) | ≤ 0.0312 | > 32 | > 32 | 4 (≈ 4.86 µM) | > 32 | 1 (≈ 1.22 µM) | > 32 | ≤ 0.0312 | ≤ 0.0312 | 16 (≈ 19.4 µM) | 8 (≈ 9.72 µM) | 4 (≈ 4.86 µM) | > 32 | ≤ 0.0312 | 1 (≈ 1.22 µM) | 16 (≈ 19.4 µM) | 16 (≈ 19.4 µM) | ≤ 0.0312 | 0.0625 | MIC [21]: > 32 µg/mL; MIC [22]: ≤ 0.0312 µg/mL; MIC [23]: 32 µg/mL (≈ 38.9 µM); MIC [24]: > 32 µg/mL; MIC [25]: 0.25 µg/mL (≈ 0.304 µM); MIC [26]: > 32 µg/mL; MIC [27]: > 32 µg/mL; MIC [28]: > 32 µg/mL
6 | CC[C@H]1OC(=O)[C@@](C)(F)C(=O)[C@H](C)[C@@H](O[C@@H]2OC(C)CC(N(C)C)C2O)[C@](C)(OC)C[C@@H](C)C(=O)[C@H](C)[C@H]2N(C/C=C/Cn3cc(-c4cnc(N)s4)nn3)C(=O)O[C@]12C (stereo partly shown) [FSM-100240] | 16 (≈ 18.8 µM) | ≤ 0.0312 | > 32 | > 32 | 32 (≈ 37.6 µM) | > 32 | 1 (≈ 1.18 µM) | > 32 | ≤ 0.0312 | 0.25 (≈ 0.294 µM) | 8 (≈ 9.41 µM) | 32 (≈ 37.6 µM) | 4 (≈ 4.71 µM) | > 32 | ≤ 0.0312 | 1 (≈ 1.18 µM) | > 32 | 32 (≈ 37.6 µM) | 0.25 (≈ 0.294 µM) | 0.125 | MIC [21]: > 32 µg/mL; MIC [22]: ≤ 0.0312 µg/mL; MIC [23]: 32 µg/mL (≈ 37.6 µM); MIC [24]: > 32 µg/mL; MIC [25]: 1 µg/mL (≈ 1.18 µM); MIC [26]: > 32 µg/mL; MIC [27]: > 32 µg/mL; MIC [28]: > 32 µg/mL
7 | CC[C@H]1OC(=O)[C@H](C)C(=O)[C@H](C)[C@@H](O[C@@H]2OC(C)CC(N(C)C)C2O)[C@](C)(OC)C[C@@H](C)C(=O)[C@H](C)[C@H]2N(C/C=C/Cn3cc(-c4ccccn4)nn3)C(=O)O[C@]12C (stereo partly shown) [FSM-100341] | 32 (≈ 39.5 µM) | < 0.0312 | > 32 | > 32 | 16 (≈ 19.7 µM) | > 32 | 1 (≈ 1.23 µM) | > 32 | < 0.0312 | < 0.0312 | > 32 | 16 (≈ 19.7 µM) | 8 (≈ 9.86 µM) | > 32 | < 0.0312 | 1 (≈ 1.23 µM) | > 32 | 32 (≈ 39.5 µM) | < 0.0312 | 0.25 | MIC [21]: > 32 µg/mL; MIC [22]: < 0.0312 µg/mL; MIC [23]: 32 µg/mL (≈ 39.5 µM); MIC [24]: > 32 µg/mL; MIC [25]: 2 µg/mL (≈ 2.47 µM); MIC [26]: > 32 µg/mL; MIC [27]: > 32 µg/mL; MIC [28]: > 32 µg/mL
